19 compounds from US7074798B2, “Xanthine derivative and DPPIV inhibitor” (Eisai Co., Ltd, priority 2002, dated 2006) can be followed below.

By IC50 is commonly meant the concentration at which inhibition is half-maximal.

Structures can show the parent of a compound that is named as a salt.

T1 sequence (P22411 whole entry): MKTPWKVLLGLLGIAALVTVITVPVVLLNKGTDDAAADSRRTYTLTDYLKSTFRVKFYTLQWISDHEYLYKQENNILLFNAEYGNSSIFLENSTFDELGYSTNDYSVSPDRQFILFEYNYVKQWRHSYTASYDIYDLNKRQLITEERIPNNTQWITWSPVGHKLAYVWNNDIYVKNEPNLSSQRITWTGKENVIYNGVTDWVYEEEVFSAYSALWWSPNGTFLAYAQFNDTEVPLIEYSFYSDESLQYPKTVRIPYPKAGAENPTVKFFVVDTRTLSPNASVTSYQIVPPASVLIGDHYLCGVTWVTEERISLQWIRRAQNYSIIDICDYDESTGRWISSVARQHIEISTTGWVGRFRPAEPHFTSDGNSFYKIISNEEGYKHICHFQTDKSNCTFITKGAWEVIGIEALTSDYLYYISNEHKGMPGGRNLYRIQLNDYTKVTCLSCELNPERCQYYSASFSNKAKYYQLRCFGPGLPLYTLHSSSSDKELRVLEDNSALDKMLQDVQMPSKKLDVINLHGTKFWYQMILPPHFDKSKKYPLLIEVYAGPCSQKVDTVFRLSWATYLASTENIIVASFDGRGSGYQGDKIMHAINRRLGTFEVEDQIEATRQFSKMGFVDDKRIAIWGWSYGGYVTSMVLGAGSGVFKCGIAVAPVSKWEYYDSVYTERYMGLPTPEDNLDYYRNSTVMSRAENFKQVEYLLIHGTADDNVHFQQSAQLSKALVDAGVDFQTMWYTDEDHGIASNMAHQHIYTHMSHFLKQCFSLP

The first assay deals with male C57BL/6N mouse. Put plainly: Effect on glucose tolerance of normal mouse (oral glucose loading). The class given is in vivo. The conditions noted are these: 2 h, 1 mg/kg oral, 30 min before glucose 2 g/kg, AUC0-120, 0.5% MC = 100%, NVP DPP728 10 mg/kg = 0%, lower = better, read-out: Improvement degree of glucose tolerance. The procedure: Effect on Glucose Tolerance of Normal Mouse
male C57BL/6N mouse (purchased from CHARLES RIVER JAPAN, INC.)
A suspension of the test compound and NVP DPP728 or 0.5% MC solution (solvent control group) were orally administered at a dose of 10 mL/kg, and after 30 minutes, glucose solution was orally administered at a dose of 10 mL/kg. Glucose was orally administered at a dose of 2 g/kg.
Immediately before the administration of the test substance and NVP DPP728, immediately before the administration of the glucose solution and at 30 minutes, 60 minutes, and 120 minutes after the administration, a tail vein of the mouse was injured to slightly bleed by a razor under no anesthesia. 10 μl of blood was collected and was immediately mixed with 0.6M perchloric acid (140 μl). Glucose in the supernatant obtained by centrifugation (1500 g, 10 minutes, 4° C., refrigerated centrifuge GS-6KR, Beckman Instruments, Inc.) was measured using Glucose CII-Test Wako (Wako Pure Chemical Industries, Ltd.).
Area under the curve of blood glucose level-time (AUC0-120; Area Under the Curve) from the time of administration of glucose to 120 minutes after administration was calculated for respective administration groups, i.e., 0.5% MC solution, NVP DPP728, and the test compounds. Taking the AUC0-120 of the 0.5% MC solution administration group as 100% and the AUC0-120 of NVP DPP728 (10 mg/kg) administration group as 0%, the improvement degree of the glucose tolerance of a test compound was calculated using the following formula: Improvement degree of the glucose tolerance (%)=(AUC0-120 of the test compound−AUC0-120 of the NVP DPP728 (10 mg/kg) administration group)/(AUC0-120 of the 0.5% MC solution administration group−AUC0-120 of the NVP DPP728 (10 mg/kg) administration group)×100. • The lower the % value, the greater the improvement degree of the glucose tolerance will be.
Turning to `C=Cc1ccccc1-n1c(N2CCNCC2)nc2c1c(=O)[nH]c(=O)n2C` [Example 174, 7-(2-Vinylphenyl)-3-methyl-8-(piperazin-1-yl)-3,7-dihydropurine-2,6-dione], the response vs control in vivo at 1 mg/kg was found to be 24.3%.

For the compound `CC#CCn1c(N2CCNCC2)nc2c1c(=O)n(CCc1ccccc1)c(=O)n2CC(=O)OCC` [Example 326, [7-(2-Butynyl)-2,6-dioxo-1-(2-phenethyl)-8-(piperazin-1-yl)-1,2,6,7-tetrahydropurin-3-yl]acetic acid ethyl ester hydrochloride], the response vs control in vivo at 1 mg/kg was -19.2%.

The same assay, now with this note: 2 h, 3 mg/kg oral, 30 min before glucose 2 g/kg, AUC0-120, 0.5% MC = 100%, NVP DPP728 10 mg/kg = 0%, lower = better, read-out: Improvement degree of glucose tolerance.
For `Cn1c(=O)n(CCc2ccccc2)c(=O)c2c1nc(N1CCCNCC1)n2Cc1ccccc1` [Control compound 1, reference compound], the response vs control in vivo at 3 mg/kg was found to be 49.2%.

For `C=Cc1ccccc1-n1c(N2CCNCC2)nc2c1c(=O)[nH]c(=O)n2C` [Example 174, 7-(2-Vinylphenyl)-3-methyl-8-(piperazin-1-yl)-3,7-dihydropurine-2,6-dione], the response vs control in vivo at 3 mg/kg is -9.1%. On the same count and under the same terms, in the case of `NC(=O)Cn1c(=O)[nH]c(=O)c2c1nc(N1CCNCC1)n2-c1ccccc1Cl` [Example 194, 2-[7-(2-Chlorophenyl)-2,6-dioxo-8-(piperazin-1-yl)-1,2,6,7-tetrahydropurin-3-yl]-acetamide trifluoroacetate] it was 9.9%; in that of `CC#CCn1c(N2CCNCC2)nc2c1c(=O)n(C)c(=O)n2CC` [Example 216, 7-(2-Butynyl)-3-ethyl-1-methyl-8-(piperazin-1-yl)-3,7-dihydropurine-2,6-dione trifluoroacetate], -5%. In the case of `CC#CCn1c(N2CCNCC2)nc2c1c(=O)n(C)c(=O)n2Cc1ccccc1` [Example 218, 7-(2-Butynyl)-3-benzyl-1-methyl-8-(piperazin-1-yl)-3,7-dihydropurine-2,6-dione trifluoroacetate], the response vs control in vivo at 3 mg/kg is 16.8%. Consider `CC#CCn1c(N2CCNCC2)nc2c1c(=O)n(C)c(=O)n2CC(=O)OC` [Example 219, [7-(2-Butynyl)-1-methyl-2,6-dioxo-8-(piperazin-1-yl)-1,2,6,7-tetrahydropurin-3-yl]acetic acid methyl ester trifluoroacetate], for which the response vs control in vivo at 3 mg/kg is -1.4%. Turning to `CC#CCn1c(N2CCNCC2)nc2c1c(=O)n(C)c(=O)n2CC1CCCO1` (stereo not shown) [Example 226, 7-(2-Butynyl)-3-(2-tetrahydrofuranyl)methyl-1-methyl-8-(piperazin-1-yl)-3,7-dihydropurine-2,6-dione trifluoroacetate], the response vs control in vivo at 3 mg/kg was -5.2%.

Take `CC#CCn1c(N2CCNCC2)nc2c1c(=O)n(C)c(=O)n2C(C(=O)OC)c1ccccc1` (stereo not shown) [Example 240, [7-(2-Butynyl)-1-methyl-2,6-dioxo-8-(piperazin-1-yl)-1,2,6,7-tetrahydropurin-3-yl]phenyl acetic acid methyl ester trifluoroacetate]: the response vs control in vivo at 3 mg/kg was -2.8%. Still for that read-out and setting: the same measure for `CC#CCn1c(N2CCNCC2)nc2c1c(=O)n(C)c(=O)n2CCC` [Example 243, 7-(2-Butynyl)-3-propyl-1-methyl-8-(piperazin-1-yl)-3,7-dihydropurine-2,6-dione trifluoroacetate]: 8.4%; for `CC#CCn1c(N2CCNCC2)nc2c1c(=O)n(C)c(=O)n2CC(=O)c1ccccc1` [Example 256, 7-(2-Butynyl)-3-(2-oxo-2-phenethyl)-1-methyl-8-(piperazin-1-yl)-3,7-dihydropurine-2,6-dione trifluoroacetate]: 2.4%; for `CC#CCn1c(N2CCNCC2)nc2c1c(=O)n(C)c(=O)n2C(C)C(=O)OCC` (stereo not shown) [Example 257, 2-[7-(2-Butynyl)-1-methyl-2,6-dioxo-8-(piperazin-1-yl)-1,2,6,7-tetrahydropurin-3-yl]propionic acid ethyl ester trifluoroacetate]: 10.5%. Same read-out and setting: the same measure for `CC#CCn1c(N2CCNCC2)nc2c1c(=O)n(C)c(=O)n2C1CCOC1=O` (stereo not shown) [Example 263, 7-(2-Butynyl)-3-(2-oxo-tetrahydrofuran-3-yl)-1-methyl-8-(piperazin-1-yl)-3,7-dihydropurine-2,6-dione trifluoroacetate]: 16.4%. Same read-out and setting: the same measure for `CC#CCn1c(N2CCNCC2)nc2c1c(=O)n(C)c(=O)n2CCOCC` [Example 266, 7-(2-Butynyl)-3-(2-ethoxyethyl)-1-methyl-8-(piperazin-1-yl)-3,7-dihydropurine-2,6-dione trifluoroacetate]: -2.3%; for `CC#CCn1c(N2CCNCC2)nc2c1c(=O)n(C)c(=O)n2C(C)C` [Example 270, 7-(2-Butynyl)-3-isopropyl-1-methyl-8-(piperazin-1-yl)-3,7-dihydropurine-2,6-dione trifluoroacetate]: 7.3%. On to `CC#CCn1c(N2CCNCC2)nc2c1c(=O)n(C)c(=O)n2CC(=O)C(C)(C)C` [Example 274, 7-(2-Butynyl)-3-(3,3-dimethyl-2-oxobutyl)-1-methyl-8-(piperazin-1-yl)-3,7-dihydropurine-2,6-dione trifluoroacetate], for which the response vs control in vivo at 3 mg/kg is 1.9%. Same read-out and setting: in the case of `CC#CCn1c(N2CCNCC2)nc2c1c(=O)n(C)c(=O)n2C1CCNC1=O` (stereo not shown) [Example 284, 7-(2-Butynyl)-1-methyl-3-(2-oxopyrrolidin-3-yl)-8-(piperazin-1-yl)-3,7-dihydropurine-2,6-dione hydrochloride] it was 11.3%; in that of `CC#CCn1c(N2CCNCC2)nc2c1c(=O)[nH]c(=O)n2CCOCC` [Example 321, 7-(2-Butynyl)-3-(2-ethoxyethyl)-8-(piperazin-1-yl)-3,7-dihydropurine-2,6-dione trifluoroacetate], 16.9%. Still for that read-out and setting: in the case of `CC#CCn1c(N2CCNCC2)nc2c1c(=O)n(CC(=O)c1ccccc1)c(=O)n2CCOCC` [Example 323, 7-(2-Butynyl)-3-(2-ethoxyethyl)-1-(2-oxo-2-phenylethyl-8-(piperazin-1-yl)-3,7-dihydropurine-2,6-dione trifluoroacetate] it was 0.5%; in that of `CC#CCn1c(N2CCNCC2)nc2c1c(=O)n(CCc1ccccc1)c(=O)n2CC(=O)OCC` [Example 326, [7-(2-Butynyl)-2,6-dioxo-1-(2-phenethyl)-8-(piperazin-1-yl)-1,2,6,7-tetrahydropurin-3-yl]acetic acid ethyl ester hydrochloride], -30.6%.

The next assay has as its target T1, DPP-IV obtained from swine kidney (Sus scrofa, UniProt P22411).
T1 construct: DPP-IV obtained from swine kidney; from tissue; host or cells: swine kidney
Put plainly: Determination of the inhibition action of DPPIV. The assay is classed as biochemical. The settings on record: Gly-Pro-p-nitroanilide 0.33 mM, absorbance 405 nm. The procedure:
DPP-IV obtained from swine kidney was dissolved in reaction buffer (50 mM Tris-HCl pH 7.4, 0.1% BSA) at a concentration of 10 mU/mL, and 110 μl of the solution was added. Then, medicament (15 μl) was added thereto, and the mixture was incubated at room temperature for 20 minutes. Gly-Pro-p-nitroanilide (25 μl, final concentration: 0.33 mM) dissolved to 2 mM was added to the mixture to start enzymatic reaction. The reaction time was 20 minutes, and 1N phosphoric acid solution (25 μl) was added to the mixture to quench the reaction.
`Cn1c(=O)n(CCc2ccccc2)c(=O)c2c1nc(N1CCCNCC1)n2Cc1ccccc1` [Control compound 1, reference compound] had an IC50 of 24.1 nM.
